Reference: article PMC9563815, “Overcoming high level adenosine-mediated immunosuppression by DZD2269, a potent and selective A2aR antagonist” (Journal of Experimental & Clinical Cancer Research : CR, 2022)

Key:
[1] = system: CREB phosphorylation in T cells; assay: pCREB signaling inhibition assay, ex vivo human whole blood T cells; type: cell-based; conditions: for IC50: Homo sapiens, T-cell, read-out: IC50, block of CREB phosphorylation in CD4+ T cells; for pCREB at the highest concentration tested: 10 µM antagonist
Protocol: Whole blood samples from three different healthy donors were collected and seeded in 96-well deep plates at a concentration of 90 µL/well. […] Cells were then lysed and fixed with BD Lyse/Fix Buffer (BD Bioscience, 558,049) for 15 min at 37 °C. After washed twice with DPBS (Hyclone, SH30028.02), the cells were centrifuged at 600 × g for 8 min. Cells were permeabilized by slow addition of BD Phosflow™ Perm Buffer III (BD Bioscience, 55,805) and incubated on ice for 60 min, and then resuspended in DPBS and stained with anti-CD3, anti-CD4, anti-CD8, and anti-pCREB (Ser133) antibodies for 1 h at room temperature in the dark. Cells were then washed twice and acquired on a flow cytometric (BD FACSCanto™ II) with DIVA software (BD Biosciences). The reported pCREB signal is the mean fluorescent intensity (MFI).
For ex vivo pCREB assessment, whole blood samples were collected from healthy donors, plated at 90 µL/well in 96-well deep plates, and pre-incubated with DZD2269 at 37 °C for 30 min.

[2] = biological target: T1, A2aR (Homo sapiens, UniProt P29274); assay: cAMP accumulation assay (HTRF) in CHO-A2aR cells; type: cell-based
T1 construct: host or cells: CHO
T1 sequence (P29274 whole entry): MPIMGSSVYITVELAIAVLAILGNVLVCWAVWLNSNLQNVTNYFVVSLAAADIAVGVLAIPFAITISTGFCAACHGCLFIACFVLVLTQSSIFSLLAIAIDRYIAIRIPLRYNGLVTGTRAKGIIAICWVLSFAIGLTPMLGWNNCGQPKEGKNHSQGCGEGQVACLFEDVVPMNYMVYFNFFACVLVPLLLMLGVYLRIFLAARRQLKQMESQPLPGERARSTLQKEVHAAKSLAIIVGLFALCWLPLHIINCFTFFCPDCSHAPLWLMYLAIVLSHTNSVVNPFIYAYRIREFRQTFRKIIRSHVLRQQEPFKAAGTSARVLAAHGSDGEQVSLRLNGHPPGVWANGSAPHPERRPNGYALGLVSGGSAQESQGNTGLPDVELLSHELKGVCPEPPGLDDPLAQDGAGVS
Protocol: CHO cells stably expressing human adenosine receptors (CHO-A2aR, CHO-A2bR, CHO-A1R and CHO-A3R) were purchased from GenScript. […] All CHO cells were cultured in Ham’s F12K medium (Gibco) with 10% FBS (Gibco) and RM-1 in DMEM (Gibco) medium with 10% FBS. […] All other cells were cultured without antibiotics. All cells were maintained and propagated in a humidified incubator at 37 °C, 5% CO2.
Assays were performed with HTRF cAMP kit (Cisbio, 62AM4PEJ). […] CHO-A2aR and CHO-A2bR cells were seeded in the plates at a density of 5,000 cells/well in F-12 medium containing 10% FBS. […] The dose-response curves were fitted by nonlinear regression using GraphPad Prism.

[3] = system: monocyte-derived dendritic cells; assay: DC maturation assay (CD83); type: cell-based, human; conditions: LPS-stimulated iDCs, 10 µM NECA
Protocol: Monocytes were isolated from human PBMCs using untouched human monocytes kit (Invitrogen, #11350D) according to the manufacturer instruction. Isolated monocytes were cultured with 100 ng/ml GM-CSF (R&D, 215-GM) and 50 ng/ml IL-4 (R&D, 204-IL) supplemented every 2 days. On day 5, 100 ng/ml LPS (Sigma, L4391) was added for 48 h to stimulate DC maturation. […] CD83 was measured as DC maturation marker by flow cytometry, and the gating strategy is shown in supplemental Fig. S2. Data were analyzed with FlowJo software.

[4] = system: activated human PBMCs; assay: PBMC cytokine release assay (IL-2, IFN-γ, TNF-α); type: cell-based; conditions: NECA at 10 µM
Protocol: PBMCs (2 × 10^5 cells/well) were seeded in 96 well plate pre-coated with 10 ng/ml anti-CD3 antibody and stimulated with 20 ng/ml anti-CD28 antibodies to test IFN-γ and IL-2 secretion) or stimulated with 100 ng/ml LPS for TNF-α detection. […] Cell supernatants were collected at 24 h (IL-2 and TNF-α) and 72 h (IFN-γ) post-stimulation. IL-2 (R&D, S2050), IFN-γ (R&D, SIF50) and TNF-α (eBioscience, 88-7346-88) ELISA kits were used for measurement.

[5] = system: CREB phosphorylation in CD3+ T cells; assay: CREB phosphorylation assay in whole blood; type: cell-based; conditions: human whole blood, up to 100 µM
Protocol: Whole blood samples from three different healthy donors were collected and seeded in 96-well deep plates at a concentration of 90 µL/well. […] After washed twice with DPBS (Hyclone, SH30028.02), the cells were centrifuged at 600 × g for 8 min. […] Cells were then washed twice and acquired on a flow cytometric (BD FACSCanto™ II) with DIVA software (BD Biosciences). The reported pCREB signal is the mean fluorescent intensity (MFI).

[6] = design: method as in PMID 24835328, PMID 32685154; conditions: cited from earlier work
[7] = system: Pan02 tumors; assay: Pan02 pancreatic subcutaneous syngeneic model; type: in vivo, C57BL/6 mice; conditions: oxaliplatin 10 mg/kg alone or DZD2269 3 mg/kg alone
Protocol: B16F10, RM-1 and Pan02 cells were harvested and suspended in DPBS. Single-cell suspensions of greater than 90% viability were used for injection. Tumor cells were injected subcutaneously in the left flank of the C57BL/6 mice with a total cell number of 2 × 10^6 (B16F10 and RM-1) and 1 × 10^7 cells (Pan02) in a volume of 0.1 ml. Tumor-bearing mice were randomized into treatment groups when the mean tumor volume reached 40 to 100 mm^3. Mice were then treated with vehicle or compounds starting the day after randomization, and tumor volume and body weight were measured twice a week. Tumor growth inhibition from the onset of treatment was assessed by comparing the mean change in tumor volume between control and treatment groups and expressed as tumor growth inhibition. Tumor nodules were measured two-dimensionally with calipers, and tumor volumes were calculated using the following formula: tumor volume (TV) = (length × width^2) × 0.52.
Tumor tissues were collected at the end of the study. […] Positive cell percentage of stained IHC slides was quantified with a HALO image analysis platform (Indica Labs).
Fig. 4 DZD2269 enhances the efficacy of radiotherapy (RT) in syngeneic mouse in vivo models. […] (A) IFN-γ in supernatant was measured 72 h after co-culture. (B) IL-2 in supernatant was measured 24 h after co-culture. […] Infiltrated CD8 + and CD4 + T cells were determined by IHC. […]

Cc1c(C#N)cccc1-c1cc(-c2cn(Cc3cccc(C(C)(C)O)n3)nn2)nc(N)n1 [AB928]
IC50 [1]: 130 nM | Concentration that brings pCREB to the control level ([1]; human whole blood, 10 µM NECA): over 1,000 nM | IC50 ([2]; stimulated with 0.1 µM NECA): 4.1 ± 1.2 nM | IC50 ([2]; stimulated with 1 µM adenosine): 3.4 ± 0.92 nM | IC50 ([2]; stimulated with 10 µM NECA): 408 ± 25 nM | IC50 ([2]; stimulated with 100 µM adenosine): 463 ± 90 nM | Relief of NECA inhibition of DC maturation (CD83) [3]: did not relieve the inhibitory effect

Cc1cc(-c2nnc(N)nc2-c2ccc(F)cc2)cc(Cl)n1 [AZD4635]
pCREB at the highest concentration tested ([1]; human whole blood, 10 µM NECA): failed to bring pCREB to the baseline (control) level | IC50 [1]: > 1000 nM

Cc1ccc(-c2nc(N)nc3c2nnn3Cc2cccc(CO[C@H]3CCOC3)n2)o1 [CPI-444]
pCREB at the highest concentration tested ([1]; human whole blood, 10 µM NECA): failed to bring pCREB to the baseline (control) level | IC50 [1]: > 1000 nM

CCNC(=O)[C@H]1O[C@@H](n2cnc3c(N)ncnc32)[C@H](O)[C@@H]1O [NECA, 5′-N-ethylcarboxamide adenosine]
IL-2, IFN-γ and TNF-α production [4]: completely blocked | CREB phosphorylation in CD3+ T cells [5]: stimulated CREB phosphorylation in a concentration dependent manner

Nc1ncnc2c1ncn2[C@@H]1O[C@H](CO)[C@@H](O)[C@H]1O [adenosine]
Biological half-life in human blood [6]: less than 10 s

O=C1[O][Pt]2([NH][C@@H]3CCCC[C@H]3[NH]2)[O]C1=O [oxaliplatin, Oxaliplatin]
Anti-tumor effect, single agent [7]: showed some anti-tumor effect
